Converted amounts (≈) assume the structure as drawn. Read-outs that look alike come from different tables or passages of the source.
Columns and labels:
S. aureus ATCC 13709 = experiment: MIC, S. aureus ATCC 13709; type: cell-based; conditions: for SA MIC: Table 14, R2 is a 5 membered heterocycle; for MIC: Staphylococcus aureus; for MIC Sa: S. aureus; for Sa MIC: Table 10
[1] = system: S. aureus ATCC 13709 + mouse serum; experiment: MIC, SA + serum (S. aureus ATCC 13709, MHCA + mouse serum); type: cell-based; conditions: Table 14; R2 is a 5 membered heterocycle
E. coli ATCC 25922 = experiment: MIC, E. coli ATCC 25922; type: cell-based; conditions: for EC8 MIC: Table 14, R2 is a 5 membered heterocycle, EC8 not defined; for MIC: Escherichia coli; for MIC Ec: E. coli; for Ec MIC: Table 10
[2] = amide bond, BOP, 40.0 °C
S. pneumoniae ATCC 51916 = experiment: MIC, S. pneumoniae ATCC 51916; type: cell-based; conditions: for MIC: Streptococcus pneumoniae, ATCC51916
P. aeruginosa ATCC 15692 = experiment: MIC, P. aeruginosa ATCC 15692; type: cell-based; conditions: for MIC: Pseudomonas aeruginosa, ATCC15692
A. baumannii ATCC 19606 = experiment: MIC, A. baumannii ATCC 19606; type: cell-based; conditions: for MIC: Acinetobacter baumannii, ATCC19606
[3] = system: K. pneumoniae ATCC 700603; experiment: MIC, K. pneumoniae ATCC 700603; type: cell-based; conditions: for MIC: Klebsiella pneumoniae, ATCC700603
hERG = molecular target: T1, hERG (Homo sapiens, UniProt Q12809); experiment: Cerep automated patch-clamp hERG assay, Chinese Hamster Ovary K1 cells; type: cell-based; conditions: for IC50: Table 19, automated patch-clamp, CHO K1 cells, tail current
T1 construct: host or cells: Chinese Hamster Ovary K1 cells
Experimental: A Cerep automated patch-clamp assay using Chinese Hamster Ovary K1 cells was used to measure hERG IC50 values. The degree of inhibition (%) was obtained by measuring the tail current amplitude, which is induced by a one second test pulse to −40 mV after a two second pulse to +20 mV, before and after drug incubation (the difference in current was normalized to control and multiplied by 100 to obtain the percent inhibition).
Concentration (log) response curves were fitted to a logistic equation (three parameters assuming complete block of the current at very high test compound concentrations) to generate estimates of the 50% inhibitory concentration (IC50). The concentration-response relationship of each compound was constructed from the percentage reductions of current amplitude by sequential concentrations. The hERG IC50 values are provided in Table 19 below for the compounds tested.

[4] = system: B. thailandensis ATCC E264; experiment: microbe, parasite or virus in culture; type: cell-based
[5] = system: F. tularensis holarctica LVS; experiment: microbe, parasite or virus in culture; type: cell-based; conditions: for Ft MIC: Table 10, Ft = F. tularensis, strain not stated
Bp = experiment: organism not typed; type: cell-based; conditions: read-out: Bp MIC
[6] = amide bond, BOP/Et3N then EDC, DCM/NMP 1:1, 40.0 °C
Y. pestis CO92 pgm- = type: cell-based; conditions: Table 10
[7] = ATCC13709, S. aureus, Alamar Blue read after overnight incubation at 35° C., read-out: MIC Sa
[8] = ATCC25922, E. coli, Alamar Blue read after overnight incubation at 35° C., read-out: MIC Ec
[9] = Table 10, Ab = A. baumannii, strain not stated
[10] = Alamar Blue read after overnight incubation at 35° C.
[11] = Ec = E. coli, strain not stated

T1 sequence (Q12809 whole entry): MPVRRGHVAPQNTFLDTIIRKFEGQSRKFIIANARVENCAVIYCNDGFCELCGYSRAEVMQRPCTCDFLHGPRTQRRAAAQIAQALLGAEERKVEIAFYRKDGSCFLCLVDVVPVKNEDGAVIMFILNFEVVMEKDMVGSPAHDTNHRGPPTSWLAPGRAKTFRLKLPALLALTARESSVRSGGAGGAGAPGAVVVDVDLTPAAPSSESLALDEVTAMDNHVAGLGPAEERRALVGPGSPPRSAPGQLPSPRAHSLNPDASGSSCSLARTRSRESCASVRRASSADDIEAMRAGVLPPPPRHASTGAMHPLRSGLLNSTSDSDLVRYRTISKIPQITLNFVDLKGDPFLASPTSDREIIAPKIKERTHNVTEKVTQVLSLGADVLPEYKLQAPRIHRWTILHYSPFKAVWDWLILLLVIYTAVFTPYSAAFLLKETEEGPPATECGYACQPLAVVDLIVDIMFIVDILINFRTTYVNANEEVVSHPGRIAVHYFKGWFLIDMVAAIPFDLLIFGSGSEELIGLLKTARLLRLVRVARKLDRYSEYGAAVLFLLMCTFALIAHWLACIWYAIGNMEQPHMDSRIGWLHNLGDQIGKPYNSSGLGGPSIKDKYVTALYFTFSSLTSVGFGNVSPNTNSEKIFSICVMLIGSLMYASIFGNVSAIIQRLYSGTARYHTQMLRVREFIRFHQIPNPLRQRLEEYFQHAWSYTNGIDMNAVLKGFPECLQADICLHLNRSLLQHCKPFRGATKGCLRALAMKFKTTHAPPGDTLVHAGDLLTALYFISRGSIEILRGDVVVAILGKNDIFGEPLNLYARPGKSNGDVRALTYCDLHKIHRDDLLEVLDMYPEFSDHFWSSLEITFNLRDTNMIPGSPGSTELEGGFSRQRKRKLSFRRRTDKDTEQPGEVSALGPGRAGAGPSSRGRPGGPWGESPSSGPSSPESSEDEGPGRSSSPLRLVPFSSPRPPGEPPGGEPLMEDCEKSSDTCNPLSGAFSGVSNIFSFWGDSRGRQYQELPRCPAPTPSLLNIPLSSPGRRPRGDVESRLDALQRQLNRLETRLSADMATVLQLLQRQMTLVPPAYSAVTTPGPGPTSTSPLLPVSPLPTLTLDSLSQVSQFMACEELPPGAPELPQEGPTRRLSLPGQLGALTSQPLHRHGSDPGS

CNc1cc(F)cc2c1[nH]c1nc(Sc3nc(C(=O)O)cs3)nc(N3CC4CC(N)C4C3)c12 (centres unmarked)
SA MIC (S. aureus ATCC 13709): ≤ 0.5 µg/mL | SA+ serum MIC [1]: 2 µg/mL | EC8 MIC (E. coli ATCC 25922): > 16 µg/mL

CNc1cc(F)cc2c1[nH]c1nc3nc(c12)N1CC(CNC(=O)COc2cc(C#N)cc(c2)O3)C1
ring closure, yield of all isomers ([2]; from CNc1cc(F)cc2c1[nH]c1nc(Oc3cc(C#N)cc(OCC(=O)O)c3)nc(N3CC(CN)C3)c12, EDC (Et3N), DCM/NMP (1:1), 40.0 mM, 2.0 h): 17%

CNc1cc(F)cc2c1[nH]c1nc3nc(c12)N[C@H](CN)COCCCNC(=O)CSc1ncc(cn1)O3
ring closure, yield of all isomers ([2]; from CNc1cc(F)cc2c1[nH]c1nc(Oc3cnc(SCC(=O)O)nc3)nc(N[C@H](CN)COCCCN)c12, then EDC (Et3N), DCM/NMP (1:1), 38.5 mM, 3.0 h): 57%

CN(C(=O)OC(C)(C)C)c1cc(F)cc2c1[nH]c1nc3nc(c12)NCCCCCCNC(=O)CSc1ncc(cn1)O3
ring closure, yield of all isomers ([2]; from CN(C(=O)OC(C)(C)C)c1cc(F)cc2c1[nH]c1nc(Oc3cnc(SCC(=O)O)nc3)nc(NCCCCCCN)c12, then EDC (Et3N), DCM/NMP, 30.0 mM, 3.0 h): 72%

CCOC(=O)c1csc(Nc2nc(N3C[C@H]4C[C@@H]3C[C@H]4N)c3c(n2)[nH]c2c(NC)cc(F)cc23)n1 [drawing 1760]
SA MIC (S. aureus ATCC 13709): ≤ 0.5 µg/mL | SA+ serum MIC [1]: > 16 µg/mL | EC8 MIC (E. coli ATCC 25922): 1 µg/mL

CNc1cc(F)cc2c1[nH]c1nc(Sc3nncs3)nc(N3C[C@H]4C[C@@H]3C[C@H]4N)c12 [drawing 1754]
SA MIC (S. aureus ATCC 13709): <≤ 0.5 | SA+ serum MIC [1]: ≤ 0.5 µg/mL | EC8 MIC (E. coli ATCC 25922): ≤ 0.5 µg/mL

CNc1cc(F)cc2c1[nH]c1nc(Sc3nc4ccccc4s3)nc(N3C[C@H]4C[C@@H]3C[C@H]4N)c12
SA MIC (S. aureus ATCC 13709): 1 µg/mL | SA+ serum MIC [1]: 4 µg/mL | EC8 MIC (E. coli ATCC 25922): 16 µg/mL

CNc1cc(F)cc2c1[nH]c1nc(Oc3cnc(C(C)O)nc3)nc(N3CC4C[C@@H](N)C4C3)c12 (some centres unmarked) [Compound 4.409]
MIC (S. aureus ATCC 13709; [7]): ≤ 0.5 µg/mL | MIC (S. aureus ATCC 13709; ATCC13709, Table 10, Sa = S. aureus, read-out: Sa MIC): ≤ 0.5 µg/mL | MIC (S. pneumoniae ATCC 51916; Table 10, Spn = S. pneumoniae): ≤ 0.5 µg/mL | MIC (E. coli ATCC 25922; [8]): ≤ 0.5 µg/mL | MIC (E. coli ATCC 25922; ATCC25922, Table 10, Ec = E. coli, strain not stated, read-out: Ec MIC): ≤ 0.5 µg/mL | MIC (P. aeruginosa ATCC 15692; Table 10, Pa = P. aeruginosa): 1 µg/mL (≈ 2.15 µM) | MIC (A. baumannii ATCC 19606; [9]): 1 µg/mL (≈ 2.15 µM) | MIC ([3]; Table 10, Kpn = K. pneumoniae): 4 µg/mL (≈ 8.61 µM) | IC50 (hERG): 7.5 µM

CNc1cc(F)c(F)c2c1[nH]c1nc(Oc3cnc([C@@H](C)O)nc3)nc(N3C[C@H]4C[C@@H]3C[C@H]4N)c12 [Compound 9.1]
MIC (S. aureus ATCC 13709; ATCC13709, Table 20, read-out: Sa MIC): ≤ 0.5 µg/mL | MIC (S. pneumoniae ATCC 51916; Table 20, read-out: Spn MIC): ≤ 0.5 µg/mL | MIC (E. coli ATCC 25922; ATCC25922, Table 20, read-out: Ec MIC): ≤ 0.5 µg/mL | MIC (P. aeruginosa ATCC 15692; Table 20, read-out: Pa MIC): 2 µg/mL (≈ 4.15 µM) | MIC (A. baumannii ATCC 19606; Table 20, read-out: Ab MIC): 1 µg/mL (≈ 2.07 µM) | MIC ([3]; Table 20, read-out: Kpn MIC): 4 µg/mL (≈ 8.29 µM) | MIC ([4]; Burkholderia thailandensis, ATCCE264, read-out: Bt MIC): 0.5 µg/mL (≈ 1.04 µM) | MIC ([5]; Francisella tularensis, read-out: Ft MIC): 0.5 µg/mL (≈ 1.04 µM) | MIC (Bp): 0.5 µg/mL (≈ 1.04 µM) | IC50 (hERG): 80 to 100 µM | selectivity in the hERG assay (hERG; compared with previous compounds in the series): significantly more selective

CN(C(=O)OC(C)(C)C)c1cc(F)cc2c1[nH]c1nc3nc(c12)NCCCCCCNC(=O)c1cncc(c1)O3
ring closure, yield of all isomers ([2]; from CN(C(=O)OC(C)(C)C)c1cc(F)cc2c1[nH]c1nc(Oc3cncc(C(=O)O)c3)nc(NCCCCCCN)c12, then EDC (Et3N), DCM/NMP, 18.5 mM, 3.0 h): 74%

CNc1cc(F)cc2c1[nH]c1nc(Sc3nc(Br)cs3)nc(N3CC4CC(N)C4C3)c12 (centres unmarked)
SA MIC (S. aureus ATCC 13709): ≤ 0.5 µg/mL | SA+ serum MIC [1]: ≤ 0.5 µg/mL | EC8 MIC (E. coli ATCC 25922): ≤ 0.5 µg/mL

CN(C(=O)OC(C)(C)C)c1cc(F)cc2c1[nH]c1nc3nc(c12)NCCCCNC(=O)CSc1ncc(cn1)O3
ring closure, yield after HPLC ([6]; from CN(C(=O)OC(C)(C)C)c1cc(F)cc2c1[nH]c1nc(Oc3cnc(SCC(=O)O)nc3)nc(NCCCCN)c12, 17-membered ring, 36.5 mM): 34%

CNc1cc(F)cc2c1[nH]c1nc(Sc3nnc(C)s3)nc(N3C[C@H]4C[C@@H]3C[C@H]4N)c12
SA MIC (S. aureus ATCC 13709): ≤ 0.5 µg/mL | SA+ serum MIC [1]: ≤ 0.5 µg/mL | EC8 MIC (E. coli ATCC 25922): ≤ 0.5 µg/mL

5-((4-(6-aminohexyl)amino)-8-((tert-butoxycarbonyl)(methyl)amino)-6-fluoro-9H-pyrimido[4,5-b]indol-2-yl)oxy)nicotinic acid
ring closure, yield after HPLC ([6]; the molecule shown is the open-chain precursor, 16-membered ring, 18.5 mM): 74%

CNc1cc(F)cc2c1[nH]c1nc3nc(c12)N([C@H](CN)COCCCN)C(=O)CSc1ncc(cn1)O3
ring closure, yield after HPLC ([6]; from CNc1cc(F)cc2c1[nH]c1nc(Oc3cnc(SCC(=O)O)nc3)nc(N[C@H](CN)COCCCN)c12, 38.5 mM): 57%

CNc1cc(F)cc2c1[nH]c1nc(Oc3cnc([C@@H](C)O)nc3)nc(N3C[C@H]4C[C@@H]3C[C@H]4N)c12 [Compound 4.408]
MIC (S. aureus ATCC 13709; [7]): ≤ 0.5 µg/mL | MIC (E. coli ATCC 25922; [8]): ≤ 0.5 µg/mL | IC50 (hERG): 6.4 µM

CNc1cc(F)cc2c1[nH]c1nc(Oc3cnc(C)nc3)nc(N3CCC4(CC4N)C3)c12 (centres unmarked) [Compound 4.066]
MIC Sa (S. aureus ATCC 13709; [10]): ≤0.5 µg/mL | Sa MIC (S. aureus ATCC 13709; Sa = S. aureus): ≤0.5 µg/mL | Spn MIC (S. pneumoniae ATCC 51916; Table 10, Spn = S. pneumoniae): ≤0.5 µg/mL | MIC Ec (E. coli ATCC 25922; [10]): ≤0.5 µg/mL | Ec MIC (E. coli ATCC 25922; [11]): ≤0.5 µg/mL | Pa MIC (P. aeruginosa ATCC 15692; Table 10, Pa = P. aeruginosa): 2 µg/mL | Ab MIC (A. baumannii ATCC 19606; [9]): ≤0.5 µg/mL | Kpn MIC ([3]; Table 10, Kpn = K. pneumoniae): 2 µg/mL | Yp MIC (Y. pestis CO92 pgm-): ≤0.5 µg/mL | Bt MIC [4]: ≤0.5 µg/mL | Ft MIC [5]: 1 µg/mL

CNc1cc(F)cc2c1[nH]c1nc(Sc3nc(C(=O)OC)cs3)nc(N3CC4CC(N)C4C3)c12 (centres unmarked)
SA MIC (S. aureus ATCC 13709): ≤ 0.5 µg/mL | SA+ serum MIC [1]: 2 µg/mL | EC8 MIC (E. coli ATCC 25922): ≤ 0.5 µg/mL

CNc1cc(F)cc2c1[nH]c1nc(Oc3cnc4cccnc4c3)nc(N3CC4(CCC4N)C3)c12 (centres unmarked) [Compound 4.045]
MIC Sa (S. aureus ATCC 13709; [10]): ≤0.5 µg/mL | Sa MIC (S. aureus ATCC 13709; Sa = S. aureus): ≤0.5 µg/mL | Spn MIC (S. pneumoniae ATCC 51916; Table 10, Spn = S. pneumoniae): ≤0.5 µg/mL | MIC Ec (E. coli ATCC 25922; [10]): ≤0.5 µg/mL | Ec MIC (E. coli ATCC 25922; [11]): ≤0.5 µg/mL | Pa MIC (P. aeruginosa ATCC 15692; Table 10, Pa = P. aeruginosa): 4 µg/mL | Ab MIC (A. baumannii ATCC 19606; [9]): ≤0.5 µg/mL | Kpn MIC ([3]; Table 10, Kpn = K. pneumoniae): 8 µg/mL | Yp MIC (Y. pestis CO92 pgm-): ≤0.5 µg/mL | Bt MIC [4]: 1 µg/mL | Ft MIC [5]: 2 µg/mL

2-((5-((4-(6-aminohexyl)amino)-8-((tert-butoxycarbonyl)(methyl)amino)-6-fluoro-9H-pyrimido[4,5-b]indol-2-yl)oxy)pyrimidin-2-yl)thio)acetic acid
ring closure, yield after HPLC ([6]; the molecule shown is the open-chain precursor, 19-membered ring, 30.0 mM): 72%

Reference: patent US10865216B2, “Tricyclic Gyrase inhibitors” (MERCK SHARP & DOHME CORP., priority 2012, dated 2020)
